Laboratory results reported in patent publication US20060069132A1, “Azolecarboxamide herbicides” (priority 2004, published 2006).

Experiments:
[1] = tested on: barnyardgrass; experiment: Test A pre-/postemergence herbicide test; assay type: in vivo, Echinochloa crus-galli
Procedure, shortened: (§1)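 Seeds sown in sandy loam received a preemergence directed soil spray of compound in non-phytotoxic solvent with surfactant; postemergence plants (2–10 cm, one- to two-leaf stage) were sprayed to runoff at the same time. After ~10 days in greenhouse, injury was rated visually versus untreated controls (0 = no effect, 100 = complete control).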

[2] = tested on: large crabgrass; experiment: Test A pre-/postemergence herbicide test; assay type: in vivo, Digitaria sanguinalis
Procedure, shortened: as §1

[3] = tested on: giant foxtail; experiment: Test A pre-/postemergence herbicide test; assay type: in vivo, Setaria faberi
Procedure, shortened: as §1

[4] = tested on: morningglory; experiment: Test A pre-/postemergence herbicide test; assay type: in vivo, Ipomoea spp.
Procedure, shortened: as §1

[5] = tested on: redroot pigweed; experiment: Test A pre-/postemergence herbicide test; assay type: in vivo, Amaranthus retroflexus
Procedure, shortened: as §1

[6] = tested on: velvetleaf; experiment: Test A pre-/postemergence herbicide test; assay type: in vivo, Abutilon theophrasti
Procedure, shortened: as §1

[7] = tested on: barnyardgrass; experiment: Test B pre-/postemergence herbicide test; assay type: in vivo, Echinochloa crus-galli; settings: for Plant response rating, Barnyardgrass: preemergence; for Barnyardgrass plant response rating: postemergence, visual rating, scale 0 (no effect) to 100 (complete control)
Procedure, shortened: (§2)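 Formulation: non-phytotoxic solvent mix with surfactant. Timing: preemergence on seed and postemergence on 2–18 cm plants, applied concurrently. Readout after 13–15 d greenhouse: visual 0–100 control rating against controls.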

[8] = tested on: Surinam grass; experiment: Test B pre-/postemergence herbicide test; assay type: in vivo, Urochloa decumbens; settings: for Plant response rating, Surinam Grass: preemergence; for Surinam Grass plant response rating: postemergence, visual rating, scale 0 (no effect) to 100 (complete control)
Procedure, shortened: (§3)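 Response was scored visually 13 to 15 days after treatment against untreated greenhouse controls, 0 meaning no effect and 100 complete control. Formulations (solvent mixture plus surfactant) went onto soil after planting, onto foliage of 1- to 4-leaf plants, and onto 2-leaf plants in a flooded paddy set including rice and barnyardgrass.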

[9] = tested on: cocklebur; experiment: Test B pre-/postemergence herbicide test; assay type: in vivo, Xanthium strumarium; settings: for Plant response rating, Cocklebur: preemergence; for Cocklebur plant response rating: postemergence, visual rating, scale 0 (no effect) to 100 (complete control)
Procedure, shortened: as §2

[10] = tested on: corn; experiment: Test B pre-/postemergence herbicide test; assay type: in vivo, Zea mays; settings: for Plant response rating, Corn: preemergence; for Corn plant response rating: postemergence, visual rating, scale 0 (no effect) to 100 (complete control)
Procedure, shortened: as §3

[11] = tested on: large crabgrass; experiment: Test B pre-/postemergence herbicide test; assay type: in vivo, Digitaria sanguinalis; settings: for Plant response rating, Crabgrass, Large: preemergence; for Crabgrass, Large plant response rating: postemergence, visual rating, scale 0 (no effect) to 100 (complete control)
Procedure, shortened: as §3

[12] = tested on: giant foxtail; experiment: Test B pre-/postemergence herbicide test; assay type: in vivo, Setaria faberi; settings: for Plant response rating, Foxtail, Giant: preemergence; for Foxtail, Giant plant response rating: postemergence, visual rating, scale 0 (no effect) to 100 (complete control)
Procedure, shortened: as §3

[13] = tested on: lambsquarters; experiment: Test B pre-/postemergence herbicide test; assay type: in vivo, Chenopodium album; settings: for Lambsquarters plant response rating: postemergence, visual rating, scale 0 (no effect) to 100 (complete control)
Procedure, shortened: as §3

[14] = tested on: morningglory; experiment: Test B pre-/postemergence herbicide test; assay type: in vivo, Ipomoea coccinea; settings: for Plant response rating, Morningglory: preemergence; for Morningglory plant response rating: postemergence, visual rating, scale 0 (no effect) to 100 (complete control)
Procedure, shortened: as §2

[15] = tested on: pigweed; experiment: Test B pre-/postemergence herbicide test; assay type: in vivo, Amaranthus retroflexus; settings: for Plant response rating, Pigweed: preemergence; for Pigweed plant response rating: postemergence, visual rating, scale 0 (no effect) to 100 (complete control)
Procedure, shortened: as §3

[16] = tested on: rice; experiment: Test B pre-/postemergence herbicide test; assay type: in vivo, Oryza sativa; settings: preemergence
Procedure, shortened: as §3

[17] = tested on: velvetleaf; experiment: Test B pre-/postemergence herbicide test; assay type: in vivo, Abutilon theophrasti; settings: for Plant response rating, Velvetleaf: preemergence; for Velvetleaf plant response rating: postemergence, visual rating, scale 0 (no effect) to 100 (complete control)
Procedure, shortened: as §3

[18] = tested on: blackgrass; experiment: Test B postemergence herbicide test; assay type: in vivo, Alopecurus myosuroides; settings: postemergence, visual rating, scale 0 (no effect) to 100 (complete control)
Procedure, shortened: (§4)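 Scale 0–100: zero equals no visible effect, 100 complete control, judged by eye relative to controls. Timing: 13 to 15 days in greenhouse post-treatment. Growth stage at spraying: two leaves (paddy) or one to four leaves, 2–18 cm (postemergence).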

[19] = tested on: wheat; experiment: Test B postemergence herbicide test; assay type: in vivo, Triticum aestivum; design: key to Wheat plant response rating: 0 = no effect, 100 = complete control; settings: postemergence, 500 g ai/ha; visual rating, scale 0 (no effect) to 100 (complete control)
Procedure, shortened: (§5)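 Greenhouse test; postemergence application to plants at 1–4 leaves (2–18 cm); paddy species at 2 leaves; evaluated visually vs controls at 13–15 days; scale 0–100 (100 = complete control).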

[20] = tested on: wild oat; experiment: Test B postemergence herbicide test; assay type: in vivo, Avena fatua; settings: postemergence, visual rating, scale 0 (no effect) to 100 (complete control)
Procedure, shortened: as §5

[21] = tested on: rice; experiment: Test B flooded paddy test; assay type: in vivo, Oryza sativa; settings: 1000 g ai/ha, visual rating, scale 0 to 100 (0 no effect, 100 complete control), 13 to 15 days
Procedure, shortened: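 Postemergence plants were sprayed with formulated test chemicals at 2 to 18 cm height (1- to 4-leaf stage); paddy species were grown to the 2-leaf stage. After 13 to 15 days in a greenhouse, injury was rated visually against untreated controls on a 0–100 scale (0 = no effect, 100 = complete control).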

[22] = tested on: small flower umbrella sedge; experiment: Test B flooded paddy test; assay type: in vivo, Cyperus difformis; settings: 1000 g ai/ha, visual rating, scale 0 to 100 (0 no effect, 100 complete control), 13 to 15 days
Procedure, shortened: as §4

[23] = tested on: ducksalad; experiment: Test B flooded paddy test; assay type: in vivo, Heteranthera limosa; settings: 1000 g ai/ha, visual rating, scale 0 to 100 (0 no effect, 100 complete control), 13 to 15 days
Procedure, shortened: as §4

[24] = tested on: barnyardgrass; experiment: Test B flooded paddy test; assay type: in vivo, Echinochloa crus-galli; settings: 1000 g ai/ha, visual rating, scale 0 to 100 (0 no effect, 100 complete control), 13 to 15 days
Procedure, shortened: as §4

[25] = Postemergence, 500 g ai/ha, 0 to 100 scale, 0 no effect, 100 complete control
[26] = Postemergence, 2000 g ai/ha, 0 to 100 scale, 0 no effect, 100 complete control
[27] = Preemergence, 500 g ai/ha, visual rating, 0 to 100 scale (0 no effect, 100 complete control)
[28] = Preemergence, 2000 g ai/ha, visual rating, 0 to 100 scale (0 no effect, 100 complete control)
[29] = preemergence, 500 g ai/ha, visual injury, 0 to 100 scale (0 no effect, 100 complete control)
[30] = 500 g ai/ha, visual rating 0-100, 0 no effect, 100 complete control
[31] = 125 g ai/ha, 0 to 100 scale, 0 is no effect, 100 is complete control

CCn1nc(C(C)(C)C)cc1C(=O)Nc1cc(C(=O)OC)cc(C)n1 [Compound 148]
15: Crabgrass, Large plant response rating [2, 28] | Foxtail, Giant plant response rating [3, 25] | Plant response rating, Foxtail, Giant [3, 26] | Morningglory plant response rating [4, 25] | Plant response rating, Pigweed [5, 26] | Plant response rating, Velvetleaf [6, 26]
30: Wheat plant response rating [19]
25: Plant response rating, Barnyardgrass [1, 26] | Pigweed plant response rating [5, 28]
5: Crabgrass, Large plant response rating [2, 25] | Morningglory plant response rating [4, 28]
10: Plant response rating, Crabgrass, Large [2, 26] | Foxtail, Giant plant response rating [3, 28] | Plant response rating, Morningglory [4, 26] | Velvetleaf plant response rating [6, 28] | Plant response rating, Barnyardgrass [7, 30] | Surinam Grass plant response rating ([8]; 125 g ai/ha) | Surinam Grass plant response rating ([8]; 500 g ai/ha) | Corn plant response rating ([10]; 125 g ai/ha) | Corn plant response rating ([10]; 500 g ai/ha) | Crabgrass, Large plant response rating ([11]; 125 g ai/ha) | Crabgrass, Large plant response rating ([11]; 500 g ai/ha) | Foxtail, Giant plant response rating ([12]; 125 g ai/ha) | Foxtail, Giant plant response rating ([12]; 500 g ai/ha) | Lambsquarters plant response rating ([13]; 125 g ai/ha) | Lambsquarters plant response rating ([13]; 500 g ai/ha) | Morningglory plant response rating ([14]; 125 g ai/ha) | Morningglory plant response rating ([14]; 500 g ai/ha) | Pigweed plant response rating ([15]; 125 g ai/ha) | Plant response rating, Rice [16, 30] | Velvetleaf plant response rating ([17]; 125 g ai/ha) | Velvetleaf plant response rating ([17]; 500 g ai/ha) | Oat, Wild plant response rating ([20]; 125 g ai/ha) | Oat, Wild plant response rating ([20]; 500 g ai/ha)
20: Barnyardgrass plant response rating [1, 25] | Barnyardgrass plant response rating [1, 28] | Velvetleaf plant response rating [6, 25] | Barnyardgrass plant response rating ([7]; 500 g ai/ha) | Cocklebur plant response rating ([9]; 125 g ai/ha) | Plant response rating, Foxtail, Giant [12, 30] | Pigweed plant response rating ([15]; 500 g ai/ha) | Barnyardgrass plant response rating [24]
70: Cocklebur plant response rating ([9]; 500 g ai/ha) | Sedge, Umbrella plant response rating [22]
0: Barnyardgrass plant response rating [1, 27] | Crabgrass, Large plant response rating [2, 27] | Foxtail, Giant plant response rating [3, 27] | Morningglory plant response rating [4, 27] | Pigweed plant response rating [5, 25] | Pigweed plant response rating [5, 29] | Velvetleaf plant response rating [6, 29] | Barnyardgrass plant response rating ([7]; 125 g ai/ha) | Plant response rating, Barnyardgrass [7, 31] | Plant response rating, Surinam Grass [8, 30] | Plant response rating, Surinam Grass [8, 31] | Plant response rating, Cocklebur [9, 30] | Plant response rating, Cocklebur [9, 31] | Plant response rating, Corn [10, 30] | Plant response rating, Corn [10, 31] | Plant response rating, Crabgrass, Large [11, 30] | Plant response rating, Crabgrass, Large [11, 31] | Plant response rating, Foxtail, Giant [12, 31] | Plant response rating, Lambsquarters ([13]; preemergence, 125 g ai/ha, 0 to 100 scale, 0 is no effect, 100 is complete control) | Plant response rating, Morningglory [14, 30] | Plant response rating, Morningglory [14, 31] | Plant response rating, Pigweed [15, 30] | Plant response rating, Pigweed [15, 31] | Plant response rating, Rice [16, 31] | Plant response rating, Velvetleaf [17, 30] | Plant response rating, Velvetleaf [17, 31] | Blackgrass plant response rating ([18]; 125 g ai/ha) | Blackgrass plant response rating ([18]; 500 g ai/ha) | Rice plant response rating [21] | Ducksalad plant response rating [23]
